# Laboratory results: ChEMBL document CHEMBL1255229, “Novel antimicrobial peptides that exhibit activity against select agents and other drug resistant bacteria” (2010)
# Starred links: 1 amine or outer side, 2 acyl side, 3 side chain; linkers in the order of their positions; H or OH if unused. Non-standard residues stand in square brackets, D forms with d. Residues, ends and D or L forms follow the SMILES beside them. ξ: configuration not given here. Pro(3ξ,4ξ-(CH2)4) = O=C(O)[C@H]1NCC2CCCCC21; X1 = O=C([C@@H]1CN([*:1])C2CCCCC21)[*:2]; Phe(4-F) = N[C@@H](Cc1ccc(F)cc1)C(=O)O; Tic = O=C(O)[C@@H]1Cc2ccccc2CN1; Orn = NCCC[C@H](N)C(=O)O; Dap = NC[C@H](N)C(=O)O; Ahx = NCCCCCC(=O)O; GABA = NCCCC(=O)O; βAla = NCCC(=O)O
# How the values were obtained:
# Format in all cases: functional
# Burkholderia mallei = experiment: Antimicrobial activity against Burkholderia mallei ATCC 23444 after 24 hrs; settings: ATCC 23444, 24 h
# Acinetobacter baumannii [1] = experiment: Antimicrobial activity against Acinetobacter baumannii ATCC 19606 after 24 hrs; settings: ATCC 19606 = CIP 70.34 = JCM 6841, 24 h
# Francisella tularensis = experiment: Antimicrobial activity against Francisella tularensis SCHU-S4 after 24 hrs; settings: SCHU-S4, 24 h
# Staphylococcus aureus = experiment: Antimicrobial activity against methicillin-resistant Staphylococcus aureus ATCC 33591 after 24 hrs; settings: ATCC 33591, 24 h
# Brucella melitensis = experiment: Antimicrobial activity against Brucella melitensis 16 M after 24 hrs
# Bacillus anthracis = experiment: Antimicrobial activity against Bacillus anthracis Ames after 24 hrs
# Brucella suis = experiment: Antimicrobial activity against Brucella suis ATCC 23445 after 24 hrs; settings: ATCC 23445, 24 h
# [2] = system: Burkholderia pseudomallei; experiment: Antimicrobial activity against Burkholderia pseudomallei BURK003(1026b) after 24 hrs
# Yersinia pestis = experiment: Antimicrobial activity against Yersinia pestis CO92 after 24 hrs; settings: CO92, 24 h
# Acinetobacter baumannii [3] = experiment: Antimicrobial activity against Acinetobacter baumannii WRAIR after 24 hrs
# Brucella abortus = experiment: Antimicrobial activity against Brucella abortus 2308 after 24 hrs; settings: Brucella abortus, 2308, 24 h
Structure (SMILES),MIC (Burkholderia mallei),MIC (Acinetobacter baumannii [1]),MIC (Francisella tularensis),MIC (Staphylococcus aureus),MIC (Brucella melitensis),MIC (Bacillus anthracis),MIC (Brucella suis),MIC [2],MIC (Yersinia pestis),MIC (Acinetobacter baumannii [3]),MIC (Brucella abortus)
"CC(=O)NCCCCCC(=O)N[C@@H](Cc1ccccc1)C(=O)N1Cc2ccccc2C[C@H]1C(=O)N1CC2CCCCC2[C@H]1C(=O)NCCCCCC(=O)N[C@@H](CCCCN)C(=O)N1Cc2ccccc2C[C@H]1C(=O)N1CC2CCCCC2[C@H]1C(=O)NCCCCCC(=O)N[C@@H](Cc1ccccc1)C(=O)N1Cc2ccccc2C[C@H]1C(=O)N1CC2CCCCC2[C@H]1C(=O)NCCCCCC(=O)N[C@@H](CCCCN)C(=O)N1Cc2ccccc2C[C@H]1C(=O)N[C@@H](CCCCN)C(=O)N[C@@H](CCCCN)C(=O)N[C@@H](CCCCN)C(=O)N[C@@H](CCCCN)C(N)=O (some centres undefined) (Ac-[Ahx]F[Tic][Pro(3ξ,4ξ-(CH2)4)][Ahx]K[Tic][Pro(3ξ,4ξ-(CH2)4)][Ahx]F[Tic][Pro(3ξ,4ξ-(CH2)4)][Ahx]K[Tic]KKKK-NH2)",187 µM,5.9 µM,23.4 µM,187 µM,93 µM,1.5 µM,47 µM,187 µM,23.4 µM,2.9 µM,12 µM
CC(=O)NCCCC(=O)N[C@@H](Cc1ccccc1)C(=O)N1Cc2ccccc2C[C@H]1C(=O)N1C[C@@H](C(=O)NCCCC(=O)N[C@@H](CCCCN)C(=O)N2Cc3ccccc3C[C@H]2C(=O)N2C[C@@H](C(=O)NCCCC(=O)N[C@@H](Cc3ccccc3)C(=O)N3Cc4ccccc4C[C@H]3C(=O)N3C[C@@H](C(=O)NCCCC(=O)N[C@@H](CCCCN)C(=O)N4Cc5ccccc5C[C@H]4C(=O)N[C@@H](CCCCN)C(=O)N[C@@H](CCCCN)C(=O)N[C@@H](CCCCN)C(=O)N[C@@H](CCCCN)C(N)=O)C4CCCCC43)C3CCCCC32)C2CCCCC21 (some centres undefined) (Ac-[GABA]F[Tic][X1][GABA]K[Tic][X1][GABA]F[Tic][X1][GABA]K[Tic]KKKK-NH2),196 µM,3.1 µM,196 µM,196 µM,196 µM,12.5 µM,196 µM,196 µM,196 µM,3.1 µM,196 µM
CC(=O)NCCCC(=O)N[C@@H](Cc1ccccc1)C(=O)N1Cc2ccccc2C[C@H]1C(=O)N1C[C@@H](C(=O)NCCCC(=O)N[C@@H](CCCCN)C(=O)N2Cc3ccccc3C[C@H]2C(=O)N2C[C@@H](C(=O)NCCCC(=O)N[C@@H](Cc3ccccc3)C(=O)N3Cc4ccccc4C[C@H]3C(=O)N3C[C@@H](C(=O)NCCCC(=O)N[C@@H](CCCCN)C(=O)N4Cc5ccccc5C[C@H]4C(=O)N[C@@H](CCCCN)C(=O)N[C@@H](CCCCN)C(=O)N[C@@H](CCCCN)C(=O)N[C@@H](CCCCN)C(=O)N[C@@H](CCCCN)C(N)=O)C4CCCCC43)C3CCCCC32)C2CCCCC21 (some centres undefined) (Ac-[GABA]F[Tic][X1][GABA]K[Tic][X1][GABA]F[Tic][X1][GABA]K[Tic]KKKKK-NH2),186 µM,5.8 µM,186 µM,46.6 µM,46.6 µM,0.71 µM,93 µM,186 µM,46.6 µM,2.9 µM,> 186 µM
CC(=O)NCCC(=O)N[C@@H](Cc1ccccc1)C(=O)N1Cc2ccccc2C[C@H]1C(=O)N1C[C@@H](C(=O)NCCC(=O)N[C@@H](CCCCN)C(=O)N2Cc3ccccc3C[C@H]2C(=O)N2C[C@@H](C(=O)NCCC(=O)N[C@@H](Cc3ccccc3)C(=O)N3Cc4ccccc4C[C@H]3C(=O)N3C[C@@H](C(=O)NCCC(=O)N[C@@H](CCCCN)C(=O)N[C@@H](CCCCN)C(=O)N[C@@H](CCCCN)C(=O)N[C@@H](CCCCN)C(=O)N[C@@H](CCCCN)C(N)=O)C4CCCCC43)C3CCCCC32)C2CCCCC21 (some centres undefined) (Ac-[βAla]F[Tic][X1][βAla]K[Tic][X1][βAla]F[Tic][X1][βAla]KKKKK-NH2),200 µM,1.5 µM,100 µM,200 µM,200 µM,25 µM,200 µM,200 µM,200 µM,6.2 µM,200 µM
"CC(=O)NCCC(=O)N[C@@H](Cc1ccc(F)cc1)C(=O)N1Cc2ccccc2C[C@H]1C(=O)N1CC2CCCCC2[C@H]1C(=O)NCCC(=O)N[C@@H](CN)C(=O)N1Cc2ccccc2C[C@H]1C(=O)N1CC2CCCCC2[C@H]1C(=O)NCCC(=O)N[C@@H](Cc1ccc(F)cc1)C(=O)N1Cc2ccccc2C[C@H]1C(=O)N1CC2CCCCC2[C@H]1C(=O)NCCC(=O)N[C@@H](CN)C(=O)N1Cc2ccccc2C[C@H]1C(=O)N[C@@H](CN)C(=O)N[C@@H](CN)C(=O)N[C@@H](CN)C(=O)N[C@@H](CN)C(N)=O (some centres undefined) (Ac-[βAla][Phe(4-F)][Tic][Pro(3ξ,4ξ-(CH2)4)][βAla][Dap][Tic][Pro(3ξ,4ξ-(CH2)4)][βAla][Phe(4-F)][Tic][Pro(3ξ,4ξ-(CH2)4)][βAla][Dap][Tic][Dap][Dap][Dap][Dap]-NH2)",219 µM,3.4 µM,219 µM,109 µM,219 µM,6.8 µM,219 µM,219 µM,219 µM,3.4 µM,219 µM
CC(C)C[C@H](NC(=O)[C@@H](N)CCCCN)C(=O)N1Cc2ccccc2C[C@H]1C(=O)N1C[C@@H](C(=O)NCC(=O)N[C@@H](CCCCN)C(=O)N2Cc3ccccc3C[C@H]2C(=O)N2C[C@@H](C(=O)N[C@@H](Cc3ccccc3)C(=O)N3Cc4ccccc4C[C@H]3C(=O)N3C[C@@H](C(=O)NCC(=O)N[C@@H](CCCCN)C(=O)N4Cc5ccccc5C[C@H]4C(=O)N4C[C@@H](C(=O)N[C@@H](Cc5ccccc5)C(=O)N5Cc6ccccc6C[C@H]5C(=O)N5C[C@@H](C(=O)NCC(=O)N[C@@H](CCCCN)C(=O)N6Cc7ccccc7C[C@H]6C(=O)N6C[C@@H](C(=O)N[C@@H](CCCCN)C(=O)N[C@@H](CCCCN)C(=O)N[C@@H](CCCCN)C(=O)N[C@@H](CCCCN)C(N)=O)C7CCCCC76)C6CCCCC65)C5CCCCC54)C4CCCCC43)C3CCCCC32)C2CCCCC21 (some centres undefined) (H-KL[Tic][X1]GK[Tic][X1]F[Tic][X1]GK[Tic][X1]F[Tic][X1]GK[Tic][X1]KKKK-NH2),144 µM,4.6 µM,144 µM,17.9 µM,144 µM,8.97 µM,144 µM,144 µM,144 µM,144 µM,144 µM
CC(C)C[C@H](NC(=O)[C@@H](N)CCCCN)C(=O)N1Cc2ccccc2C[C@H]1C(=O)N1C[C@@H](C(=O)N[C@@H](CCCCN)C(=O)N2Cc3ccccc3C[C@H]2C(=O)N2C[C@@H](C(=O)N[C@@H](Cc3ccccc3)C(=O)N3Cc4ccccc4C[C@H]3C(=O)N3C[C@@H](C(=O)N[C@@H](CCCCN)C(=O)N4Cc5ccccc5C[C@H]4C(=O)N4C[C@@H](C(=O)N[C@@H](Cc5ccccc5)C(=O)N5Cc6ccccc6C[C@H]5C(=O)N5C[C@@H](C(=O)N[C@@H](CCCCN)C(=O)N6Cc7ccccc7C[C@H]6C(=O)N6C[C@@H](C(=O)N[C@@H](CCCCN)C(=O)N[C@@H](CCCCN)C(=O)N[C@@H](CCCCN)C(=O)N[C@@H](CCCCN)C(N)=O)C7CCCCC76)C6CCCCC65)C5CCCCC54)C4CCCCC43)C3CCCCC32)C2CCCCC21 (some centres undefined) (H-KL[Tic][X1]K[Tic][X1]F[Tic][X1]K[Tic][X1]F[Tic][X1]K[Tic][X1]KKKK-NH2),150 µM,9.3 µM,150 µM,150 µM,150 µM,150 µM,150 µM,150 µM,150 µM,150 µM,150 µM
CC(C)C[C@H](NC(=O)[C@@H](N)CCCCN)C(=O)N1Cc2ccccc2C[C@H]1C(=O)N1C[C@@H](C(=O)N[C@@H](CCCCN)C(=O)N2Cc3ccccc3C[C@H]2C(=O)N2C[C@@H](C(=O)N[C@@H](Cc3ccccc3)C(=O)N3Cc4ccccc4C[C@H]3C(=O)N3C[C@@H](C(=O)N[C@@H](CCCCN)C(=O)N4Cc5ccccc5C[C@H]4C(=O)N4C[C@@H](C(=O)N[C@@H](Cc5ccccc5)C(=O)N5Cc6ccccc6C[C@H]5C(=O)N5C[C@@H](C(=O)N[C@@H](CCCCN)C(=O)N6Cc7ccccc7C[C@H]6C(=O)N6C[C@@H](C(=O)N[C@@H](CCCCN)C(=O)N[C@@H](CCCNC(=N)N)C(N)=O)C7CCCCC76)C6CCCCC65)C5CCCCC54)C4CCCCC43)C3CCCCC32)C2CCCCC21 (some centres undefined) (H-KL[Tic][X1]K[Tic][X1]F[Tic][X1]K[Tic][X1]F[Tic][X1]K[Tic][X1]KR-NH2),162 µM,40.5 µM,81 µM,162 µM,162 µM,40.5 µM,162 µM,162 µM,162 µM,162 µM,500 µM
CC(C)C[C@H](NC(=O)[C@@H](N)CCCN)C(=O)N1Cc2ccccc2C[C@H]1C(=O)N1C[C@@H](C(=O)N[C@@H](CCCN)C(=O)N2Cc3ccccc3C[C@H]2C(=O)N2C[C@@H](C(=O)N[C@@H](Cc3ccccc3)C(=O)N3Cc4ccccc4C[C@H]3C(=O)N3C[C@@H](C(=O)N[C@@H](CCCN)C(=O)N4Cc5ccccc5C[C@H]4C(=O)N4C[C@@H](C(=O)N[C@@H](Cc5ccccc5)C(=O)N5Cc6ccccc6C[C@H]5C(=O)N5C[C@@H](C(=O)N[C@@H](CCCN)C(=O)N6Cc7ccccc7C[C@H]6C(=O)N6C[C@@H](C(=O)N[C@@H](CCCN)C(=O)N[C@@H](CCCN)C(=O)N[C@@H](CCCN)C(=O)N[C@@H](CCCN)C(N)=O)C7CCCCC76)C6CCCCC65)C5CCCCC54)C4CCCCC43)C3CCCCC32)C2CCCCC21 (some centres undefined) (H-[Orn]L[Tic][X1][Orn][Tic][X1]F[Tic][X1][Orn][Tic][X1]F[Tic][X1][Orn][Tic][X1][Orn][Orn][Orn][Orn]-NH2),156 µM,9.77 µM,156 µM,156 µM,156 µM,156 µM,156 µM,156 µM,156 µM,156 µM,156 µM
